Calls of active or inactive are those of the source. No cut-off for these calls is given here.
Key:
A498 = assay: Antiproliferative activity against human A498 cells assessed as inhibition of cell growth at 10 uM by SRB assay relative to control; assay type: functional
HL-60 = assay: Antiproliferative activity against human HL-60 cells assessed as cell growth inhibition at 10 uM by SRB assay; assay type: functional, cell-based
HCT-116 = assay: Antiproliferative activity against human HCT-116 cells assessed as cell growth inhibition at 10 uM by SRB assay relative to control; assay type: functional
NCI-H522 = assay: Antiproliferative activity against human NCI-H522 cells assessed as cell growth inhibition at 10 uM by SRB assay; assay type: functional, cell-based
SF-539 [1] = assay: Antiproliferative activity against human SF-539 cells assessed as cell growth inhibition at 10 uM by SRB assay relative to control; assay type: functional
A549 = assay: Antiproliferative activity against human A549 cells assessed as cell growth inhibition at 10 uM by SRB assay; assay type: functional, cell-based
Hs-578T = assay: Antiproliferative activity against human Hs-578T cells assessed as inhibition of cell growth at 10 uM by SRB assay relative to control; assay type: functional
LOX IMVI = assay: Antiproliferative activity against human LOX IMVI cells assessed as cell growth inhibition at 10 uM by SRB assay relative to control; assay type: functional
SNB-19 = assay: Antiproliferative activity against human SNB-19 cells assessed as cell growth inhibition at 10 uM by SRB assay relative to control; assay type: functional
RXF 393 = assay: Antiproliferative activity against human RXF 393 cells assessed as inhibition of cell growth at 10 uM by SRB assay relative to control; assay type: functional
DU-145 = assay: Antiproliferative activity against human DU-145 cells assessed as inhibition of cell growth at 10 uM by SRB assay relative to control; assay type: functional
OVCAR-3 = assay: Antiproliferative activity against human OVCAR-3 cells assessed as cell growth inhibition at 10 uM by SRB assay relative to control; assay type: functional; conditions: pooled result: one value given for 2 cell lines, strains, targets or settings
OVCAR-8 = assay: Antiproliferative activity against human OVCAR-8 cells assessed as cell growth inhibition at 10 uM by SRB assay relative to control; assay type: functional
MDA-MB-231 = assay: Antiproliferative activity against human MDA-MB-231 cells assessed as inhibition of cell growth at 10 uM by SRB assay relative to control; assay type: functional
Malme-3M [2] = assay: Antiproliferative activity against human Malme-3M cells assessed as cell growth inhibition at 10 uM by SRB assay relative to control; assay type: functional
NCI-H23 = assay: Antiproliferative activity against human NCI-H23 cells assessed as cell growth inhibition at 10 uM by SRB assay; assay type: functional
SF-268 = assay: Antiproliferative activity against human SF-268 cells assessed as cell growth inhibition at 10 uM by SRB assay relative to control; assay type: functional
SF-295 [3] = assay: Antiproliferative activity against human SF-295 cells assessed as cell growth inhibition at 10 uM by SRB assay; assay type: functional, cell-based
UACC-257 = assay: Antiproliferative activity against human UACC-257 cells assessed as cell growth inhibition at 10 uM by SRB assay relative to control; assay type: functional
OVCAR-4 = assay: Antiproliferative activity against human OVCAR-4 cells assessed as cell growth inhibition at 10 uM by SRB assay relative to control; assay type: functional
ACHN = assay: Antiproliferative activity against human ACHN cells assessed as inhibition of cell growth at 10 uM by SRB assay relative to control; assay type: functional; conditions: pooled result: one value given for 2 cell lines, strains, targets or settings
SK-MEL-2 = assay: Antiproliferative activity against human SK-MEL-2 cells assessed as cell growth inhibition at 10 uM by SRB assay relative to control; assay type: functional; conditions: for inhibition at 10 µM: Homo sapiens, SK-MEL-2, dose 10 µM
UACC-62 = assay: Antiproliferative activity against human UACC-62 cells assessed as cell growth inhibition at 10 uM by SRB assay relative to control; assay type: functional
NCI-H322M = assay: Antiproliferative activity against human NCI-H322M cells assessed as cell growth inhibition at 10 uM by SRB assay; assay type: functional, cell-based
HOP-62 = assay: Antiproliferative activity against human HOP-62 cells assessed as cell growth inhibition at 10 uM by SRB assay; assay type: functional, cell-based
MOLT-4 = assay: Antiproliferative activity against human MOLT-4 cells assessed as cell growth inhibition at 10 uM by SRB assay; assay type: functional, cell-based
MDA-MB-435 [4] = assay: Antiproliferative activity against human MDA-MB-435 cells assessed as cell growth inhibition at 10 uM by SRB assay relative to control; assay type: functional
M14 = assay: Antiproliferative activity against human M14 cells assessed as cell growth inhibition at 10 uM by SRB assay relative to control; assay type: functional
CCRF-CEM = assay: Antiproliferative activity against human CCRF-CEM cells assessed as cell growth inhibition at 10 uM by SRB assay; assay type: functional, cell-based
786-0 = assay: Antiproliferative activity against human 786-0 cells assessed as inhibition of cell growth at 10 uM by SRB assay relative to control; assay type: functional
NCI-H226 = assay: Antiproliferative activity against human NCI-H226 cells assessed as cell growth inhibition at 10 uM by SRB assay; assay type: functional
HOP-92 = assay: Antiproliferative activity against human HOP-92 cells assessed as cell growth inhibition at 10 uM by SRB assay; assay type: functional, cell-based
SF-295 [5] = assay: Antiproliferative activity against human SF-295 cells assessed as cell growth inhibition at 10 uM by SRB assay relative to control; assay type: functional
IGROV-1 = assay: Antiproliferative activity against human IGROV-1 cells assessed as cell growth inhibition at 10 uM by SRB assay relative to control; assay type: functional
SR = assay: Antiproliferative activity against human SR cells assessed as cell growth inhibition at 10 uM by SRB assay; assay type: functional, cell-based
K562 = assay: Antiproliferative activity against human K562 cells assessed as cell growth inhibition at 10 uM by SRB assay; assay type: functional, cell-based
RPMI-8226 [6] = assay: Antiproliferative activity against human RPMI-8226 cells assessed as cell growth inhibition at 10 uM by SRB assay; assay type: functional, cell-based
U-251 = assay: Antiproliferative activity against human U-251 cells assessed as cell growth inhibition at 10 uM by SRB assay relative to control; assay type: functional
NCI-H460 = assay: Antiproliferative activity against human NCI-H460 cells assessed as cell growth inhibition at 10 uM by SRB assay; assay type: functional, cell-based
SK-MEL-28 [7] = assay: Antiproliferative activity against human SK-MEL-28 cells assessed as cell growth inhibition at 10 uM by SRB assay relative to control; assay type: functional
SK-MEL-5 [8] = assay: Antiproliferative activity against human SK-MEL-5 cells assessed as cell growth inhibition at 10 uM by SRB assay relative to control; assay type: functional
SNB-75 [9] = assay: Antiproliferative activity against human SNB-75 cells assessed as cell growth inhibition at 10 uM by SRB assay relative to control; assay type: functional
EKVX = assay: Antiproliferative activity against human EKVX cells assessed as cell growth inhibition at 10 uM by SRB assay; assay type: functional
SN12C = assay: Antiproliferative activity against human SN12C cells assessed as inhibition of cell growth at 10 uM by SRB assay relative to control; assay type: functional
MDA-MB-435 [10] = assay: Antiproliferative activity against human MDA-MB-435 cells assessed as cell growth inhibition at 10 uM by SRB assay; assay type: functional, cell-based
Malme-3M [11] = assay: Antiproliferative activity against human Malme-3M cells assessed as cell growth inhibition at 10 uM by SRB assay; assay type: functional, cell-based
SK-MEL-28 [12] = assay: Antiproliferative activity against human SK-MEL-28 cells assessed as cell growth inhibition at 10 uM by SRB assay; assay type: functional, cell-based
SK-MEL-5 [13] = assay: Antiproliferative activity against human SK-MEL-5 cells assessed as cell growth inhibition at 10 uM by SRB assay; assay type: functional, cell-based
SNB-75 [14] = assay: Antiproliferative activity against temozolomide resistant human SNB-75 cells assessed as cell growth inhibition at 10 uM by SRB assay; assay type: functional, cell-based
SF-539 [15] = assay: Antiproliferative activity against temozolomide resistant human SF-539 cells assessed as cell growth inhibition at 10 uM by SRB assay; assay type: functional, cell-based
RPMI-8226 [16] = assay: Antiproliferative activity against human RPMI-8226 cells assessed as cell growth inhibition at 10 uM by SRB assay relative to control; assay type: functional

## COc1cc2oc(-c3cccc(NC(=O)c4ccc(Br)cc4)c3)cc(=O)c2c(OC)c1OC
A498
  inhibition at 10 µM: 63.6%
HL-60
  inhibition: Active
HCT-116
  inhibition at 10 µM: 84%
NCI-H522
  inhibition: Active
SF-539 [1]
  inhibition at 10 µM: 47.1%
A549
  inhibition: Active
Hs-578T
  inhibition at 10 µM: 73.4%
LOX IMVI
  inhibition at 10 µM: 50.8%
SNB-19
  inhibition at 10 µM: 41.2%
RXF 393
  inhibition at 10 µM: 63.6%
DU-145
  inhibition at 10 µM: > 50%
OVCAR-3
  inhibition at 10 µM: 52.9%
OVCAR-8
  inhibition at 10 µM: 52.9%
MDA-MB-231
  inhibition at 10 µM: 73.4%
Malme-3M [2]
  inhibition at 10 µM: 39.1%
NCI-H23
  inhibition: Active
  inhibition at 10 µM: < 50%
SF-268
  inhibition at 10 µM: > 50%
SF-295 [3]
  inhibition: Active
UACC-257
  inhibition at 10 µM: 39.1%
OVCAR-4
  inhibition at 10 µM: 52.9%
ACHN
  inhibition at 10 µM: 63.6%
SK-MEL-2
  inhibition at 10 µM: ≤ 46%
SK-MEL-2; dose 10 µM
  inhibition (INH): 39.07%
UACC-62
  inhibition at 10 µM: 39.1%
NCI-H322M
  inhibition: Active
HOP-62
  inhibition: Active
MOLT-4
  inhibition: Active
MDA-MB-435 [4]
  inhibition at 10 µM: 50.8%
M14
  inhibition at 10 µM: 50.8%
CCRF-CEM
  inhibition: Active
786-0
  inhibition at 10 µM: 84%
NCI-H226
  inhibition: Active
  inhibition at 10 µM: < 50%
HOP-92
  inhibition: Active
SF-295 [5]
  inhibition at 10 µM: > 50%
IGROV-1
  inhibition at 10 µM: 52.9%
SR
  inhibition: Active
K562
  inhibition: Active
RPMI-8226 [6]
  inhibition: Active
U-251
  inhibition at 10 µM: > 50%
NCI-H460
  inhibition: Active
SK-MEL-28 [7]
  inhibition at 10 µM: 50.8%
SK-MEL-5 [8]
  inhibition at 10 µM: 50.8%
SNB-75 [9]
  inhibition at 10 µM: > 50%
EKVX
  inhibition: Active
  inhibition at 10 µM: < 50%
SN12C
  inhibition at 10 µM: 63.6%

## CN(C)/N=N/c1[nH]cnc1C(N)=O [DACARBAZINE]
LOX IMVI
  inhibition at 10 µM: 49.3%
MDA-MB-435 [10]
  inhibition: inactive
Malme-3M [11]
  inhibition: inactive
UACC-257
  inhibition at 10 µM: 15%
SK-MEL-28 [12]
  inhibition: inactive
SK-MEL-2
  inhibition at 10 µM: 15%
UACC-62
  inhibition at 10 µM: 25.6%
M14
  inhibition at 10 µM: 36.5%
SK-MEL-5 [13]
  inhibition: inactive

## COc1cc2oc(-c3cccc(C(=O)Nc4ccc(C)cc4)c3)cc(=O)c2c(O)c1OC
SNB-75 [14]
  inhibition: Active
SF-539 [15]
  inhibition: Active
RPMI-8226 [16]
  inhibition at 10 µM: 82.6%

Source: ChEMBL document CHEMBL5260845, “Flavone-based arylamides as potential anticancers: Design, synthesis and in vitro cell-based/cell-free evaluations” (2020)
